Data taken from BigSolDB 2.1.

O=C1c2ccccc2C(=O)c2c(Cl)cccc21
solubility (mole fraction)
Conditions | 273.15 K | 278.15 K | 283.15 K | 288.15 K | 293.15 K | 298.15 K | 303.15 K | 308.15 K | 313.15 K
in 1,4-dioxane | 0.00323 | 0.00373 | 0.00412 | 0.00469 | 0.00547 | 0.00607 | 0.00691 | 0.00775 | 0.00896
in acetone | 0.00272 | 0.00308 | 0.00336 | 0.00388 | 0.00448 | 0.00531 | 0.00611 | 0.00692 | 0.00767
in ethyl acetate | 0.00335 | 0.00387 | 0.00459 | 0.00531 | 0.00605 | 0.0069 | 0.00795 | 0.00913 | 0.0106
in toluene | 0.00918 | 0.01 | 0.0112 | 0.0122 | 0.0132 | 0.0146 | 0.016 | 0.0175 | 0.019

O=C(O)c1cccc(Cl)c1C(=O)c1ccccc1
solubility (mole fraction)
Conditions | 273.15 K | 278.15 K | 283.15 K | 288.15 K | 293.15 K | 298.15 K | 303.15 K | 308.15 K | 313.15 K | 318.15 K
in 1,4-dioxane | 0.0192 | 0.021 | 0.0231 | 0.0254 | 0.0281 | 0.0309 | 0.034 | 0.0373 | 0.0413 | 0.0462
in acetone | 0.00169 | 0.00183 | 0.00204 | 0.00225 | 0.00258 | 0.00281 | 0.00308 | 0.00349 | 0.00385 | 0.00432
in ethyl acetate | 0.00545 | 0.00599 | 0.00692 | 0.00811 | 0.00959 | 0.011 | 0.0128 | 0.0146 | 0.0172 | 0.0197
